Consider one substance from patent US20110021455A1, “STERILISED SUCRALFATE GEL” (PIERRE FABRE DERMO-COSMETIQUE, priority 2008, published 2011).

Data set [1] can be described thus: Sterilisation with ethylene oxide. In kind it is physicochemical. The following applies: requires a long and costly desorption phase.
Data set [2] in a line: Sterilisation by gamma rays. The following applies: in the form of powder and gel; composition yellows. It counts as physicochemical. From the text:
In fact, after various tests, it seemed that sucralfate, both in the form of powder and gel, is unstable during sterilisation by gamma rays since the composition yellows.

sucralfate: the “adsorption of ethylene oxide on sucralfate during sterilisation” value in data set [1] is on record as “substantial adsorption”. Also, the “stability during sterilisation by gamma rays” value in data set [2] is reported as “unstable”.
